One experiment addresses PIK3CD (Human) (UniProt O00329). The experiment can be described thus: Enzyme Assay.
A further experiment addresses PIK3CB (Human) (UniProt P42338). The experiment can be described thus: Enzyme Assay.
Experiment [1] deals with PIK3CA (human) (UniProt P42336). The experiment can be described thus: Enzyme Assay.
Experiment [2] has the same target. The experiment can be described thus: Cell-Based Assay.
The target in the next experiment is PIK3CG (human) (UniProt P48736). The experiment can be described thus: Enzyme Assay.
Chain of PIK3CG (human) (P48736 whole entry, looked up): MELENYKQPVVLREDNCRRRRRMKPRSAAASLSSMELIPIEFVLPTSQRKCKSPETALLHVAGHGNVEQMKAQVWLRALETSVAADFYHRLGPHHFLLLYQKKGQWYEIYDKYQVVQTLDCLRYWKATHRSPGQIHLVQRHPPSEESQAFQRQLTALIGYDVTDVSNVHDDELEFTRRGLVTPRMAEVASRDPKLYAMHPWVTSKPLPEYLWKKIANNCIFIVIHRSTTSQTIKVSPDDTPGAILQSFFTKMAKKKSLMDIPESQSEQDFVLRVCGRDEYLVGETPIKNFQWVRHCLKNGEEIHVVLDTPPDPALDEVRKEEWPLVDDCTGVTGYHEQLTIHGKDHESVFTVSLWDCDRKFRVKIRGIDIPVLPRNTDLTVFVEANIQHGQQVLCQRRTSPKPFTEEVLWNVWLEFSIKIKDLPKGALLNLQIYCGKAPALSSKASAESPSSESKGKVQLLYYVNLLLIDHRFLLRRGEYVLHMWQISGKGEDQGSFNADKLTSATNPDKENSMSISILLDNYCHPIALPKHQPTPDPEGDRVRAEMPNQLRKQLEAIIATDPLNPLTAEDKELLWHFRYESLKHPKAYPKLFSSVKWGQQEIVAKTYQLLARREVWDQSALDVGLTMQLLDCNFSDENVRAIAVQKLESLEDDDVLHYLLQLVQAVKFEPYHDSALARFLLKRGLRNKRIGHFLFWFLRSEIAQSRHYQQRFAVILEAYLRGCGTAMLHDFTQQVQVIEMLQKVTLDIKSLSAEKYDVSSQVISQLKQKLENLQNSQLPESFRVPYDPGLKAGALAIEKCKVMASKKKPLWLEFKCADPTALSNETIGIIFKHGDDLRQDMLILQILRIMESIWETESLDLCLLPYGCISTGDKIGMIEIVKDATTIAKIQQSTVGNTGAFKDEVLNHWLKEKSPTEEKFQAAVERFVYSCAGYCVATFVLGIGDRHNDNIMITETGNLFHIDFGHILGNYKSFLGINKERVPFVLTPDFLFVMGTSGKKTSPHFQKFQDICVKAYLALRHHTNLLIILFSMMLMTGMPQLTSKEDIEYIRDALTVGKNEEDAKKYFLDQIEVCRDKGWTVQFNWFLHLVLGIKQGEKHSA

Each structure is given as a SMILES string.

Chain of PIK3CA (human) (P42336 whole entry, looked up): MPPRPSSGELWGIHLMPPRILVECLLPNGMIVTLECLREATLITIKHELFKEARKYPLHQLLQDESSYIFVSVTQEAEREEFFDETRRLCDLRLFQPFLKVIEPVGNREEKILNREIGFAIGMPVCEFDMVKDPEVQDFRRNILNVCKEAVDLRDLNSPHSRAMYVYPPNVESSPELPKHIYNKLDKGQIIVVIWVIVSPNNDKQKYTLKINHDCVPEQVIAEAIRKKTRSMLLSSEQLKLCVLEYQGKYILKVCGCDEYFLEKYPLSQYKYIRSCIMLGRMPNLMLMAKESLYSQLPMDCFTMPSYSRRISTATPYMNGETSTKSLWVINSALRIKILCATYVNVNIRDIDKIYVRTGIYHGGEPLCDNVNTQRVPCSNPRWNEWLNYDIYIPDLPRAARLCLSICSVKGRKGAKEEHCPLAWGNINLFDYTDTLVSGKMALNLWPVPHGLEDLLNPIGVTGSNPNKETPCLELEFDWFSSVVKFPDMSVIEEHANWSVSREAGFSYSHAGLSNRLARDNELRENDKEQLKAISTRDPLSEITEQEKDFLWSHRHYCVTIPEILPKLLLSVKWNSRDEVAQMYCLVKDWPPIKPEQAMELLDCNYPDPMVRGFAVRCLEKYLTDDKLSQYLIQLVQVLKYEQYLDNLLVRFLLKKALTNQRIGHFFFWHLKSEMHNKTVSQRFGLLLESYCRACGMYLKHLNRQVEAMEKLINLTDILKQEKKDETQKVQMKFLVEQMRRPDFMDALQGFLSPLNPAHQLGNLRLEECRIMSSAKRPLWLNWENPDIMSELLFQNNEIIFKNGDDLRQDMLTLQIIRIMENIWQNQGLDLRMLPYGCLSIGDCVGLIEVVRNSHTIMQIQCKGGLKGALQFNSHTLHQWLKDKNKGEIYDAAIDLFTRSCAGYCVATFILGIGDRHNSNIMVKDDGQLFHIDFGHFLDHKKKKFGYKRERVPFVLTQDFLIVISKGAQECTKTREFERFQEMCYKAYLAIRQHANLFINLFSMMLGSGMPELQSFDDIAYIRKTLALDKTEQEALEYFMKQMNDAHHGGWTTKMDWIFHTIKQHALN
Chain of PIK3CB (Human) (P42338 whole entry, looked up): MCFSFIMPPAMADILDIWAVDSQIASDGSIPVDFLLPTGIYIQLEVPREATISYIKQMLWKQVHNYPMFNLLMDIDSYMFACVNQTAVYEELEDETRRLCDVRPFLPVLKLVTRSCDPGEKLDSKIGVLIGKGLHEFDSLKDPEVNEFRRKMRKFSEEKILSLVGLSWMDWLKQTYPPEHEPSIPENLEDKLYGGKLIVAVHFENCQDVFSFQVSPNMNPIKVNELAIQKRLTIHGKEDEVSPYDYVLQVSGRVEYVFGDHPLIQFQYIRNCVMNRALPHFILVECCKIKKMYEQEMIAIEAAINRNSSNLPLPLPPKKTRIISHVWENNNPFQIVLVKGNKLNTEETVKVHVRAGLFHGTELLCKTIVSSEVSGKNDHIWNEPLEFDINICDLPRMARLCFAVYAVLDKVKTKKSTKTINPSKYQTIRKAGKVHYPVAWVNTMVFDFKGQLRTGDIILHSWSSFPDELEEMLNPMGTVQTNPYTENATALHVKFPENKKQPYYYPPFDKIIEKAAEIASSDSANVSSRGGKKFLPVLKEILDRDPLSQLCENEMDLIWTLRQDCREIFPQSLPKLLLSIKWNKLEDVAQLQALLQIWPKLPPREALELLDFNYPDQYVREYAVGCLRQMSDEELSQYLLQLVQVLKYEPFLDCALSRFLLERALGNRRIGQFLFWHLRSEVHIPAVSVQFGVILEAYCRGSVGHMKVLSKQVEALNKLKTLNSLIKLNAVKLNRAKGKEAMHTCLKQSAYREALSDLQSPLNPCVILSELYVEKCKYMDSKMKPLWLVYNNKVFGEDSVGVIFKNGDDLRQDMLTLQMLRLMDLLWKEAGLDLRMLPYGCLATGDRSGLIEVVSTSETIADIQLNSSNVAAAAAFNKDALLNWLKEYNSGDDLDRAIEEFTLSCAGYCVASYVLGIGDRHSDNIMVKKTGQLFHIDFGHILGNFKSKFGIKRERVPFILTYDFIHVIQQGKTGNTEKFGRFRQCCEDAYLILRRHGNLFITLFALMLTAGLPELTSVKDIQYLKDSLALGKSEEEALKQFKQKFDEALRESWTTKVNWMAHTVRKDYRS
Chain of PIK3CD (Human) (O00329 whole entry, looked up): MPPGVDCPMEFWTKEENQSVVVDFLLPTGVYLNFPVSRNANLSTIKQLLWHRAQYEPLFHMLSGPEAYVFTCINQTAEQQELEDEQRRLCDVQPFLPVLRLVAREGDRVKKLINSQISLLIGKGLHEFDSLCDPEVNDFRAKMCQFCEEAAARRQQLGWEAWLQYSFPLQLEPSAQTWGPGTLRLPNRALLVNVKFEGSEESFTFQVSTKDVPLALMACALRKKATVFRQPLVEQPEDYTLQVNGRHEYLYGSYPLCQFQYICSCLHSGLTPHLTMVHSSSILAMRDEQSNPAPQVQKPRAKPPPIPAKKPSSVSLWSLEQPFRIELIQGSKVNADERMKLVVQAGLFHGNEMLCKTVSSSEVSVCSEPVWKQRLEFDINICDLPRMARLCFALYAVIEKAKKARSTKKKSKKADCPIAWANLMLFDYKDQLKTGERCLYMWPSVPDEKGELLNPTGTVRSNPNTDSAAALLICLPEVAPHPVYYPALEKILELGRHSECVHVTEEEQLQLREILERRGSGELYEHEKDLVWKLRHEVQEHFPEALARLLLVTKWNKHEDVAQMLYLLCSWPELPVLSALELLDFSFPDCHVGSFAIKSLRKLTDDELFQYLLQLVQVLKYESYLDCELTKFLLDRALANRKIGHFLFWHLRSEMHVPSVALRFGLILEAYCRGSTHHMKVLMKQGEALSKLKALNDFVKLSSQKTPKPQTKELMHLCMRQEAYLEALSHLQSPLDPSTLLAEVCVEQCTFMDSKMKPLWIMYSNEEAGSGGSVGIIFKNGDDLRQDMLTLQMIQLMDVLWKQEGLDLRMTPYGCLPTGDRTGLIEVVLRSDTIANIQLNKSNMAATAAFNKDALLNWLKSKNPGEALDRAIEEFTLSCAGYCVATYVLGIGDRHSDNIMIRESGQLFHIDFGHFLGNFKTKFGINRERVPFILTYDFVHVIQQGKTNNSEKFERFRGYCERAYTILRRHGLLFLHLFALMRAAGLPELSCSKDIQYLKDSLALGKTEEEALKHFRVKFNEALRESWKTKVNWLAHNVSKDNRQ

As a reminder, the IC50 is the concentration that inhibits the measured activity by half. Read a high IC50 as lower potency. In the case of `CC(=O)Nc1cc2ccc(-c3cc(F)c4oc(N)nc4c3)cn2n1`, the concentration for half-maximal inhibition (IC50) on PIK3CD (Human), against PIK3CB (Human) and at PIK3CA (human) [1] was greater than 10000 nM throughout.
For the compound `COc1ncc(-c2ccc3ncn(C4CCN(C)CC4)c(=O)c3c2)cc1NS(C)(=O)=O`, at PIK3CD (Human), the half-maximal inhibitory concentration (IC50) was less than 100 nM.
Consider `CC1(C)CN(C2CN(C(=O)c3cnc4ccc(-c5ccc6oc(N)nc6c5)cn34)C2)CCN1`, for which the IC50 is 100 to 1000 nM against PIK3CA (human) [2] (pc3), less than 100 nM against PIK3CD (Human), 100 to 1000 nM against PIK3CG (human) and less than 100 nM at PIK3CA (human) [1].
With `Nc1nc2cc(-c3ccc4ncc(C(=O)N5C6CCC5COC6)n4c3)ccc2o1`, the concentration for half-maximal inhibition (IC50) against PIK3CA (human) [2] (pc3) is 100 to 1000 nM; against PIK3CG (human) it was less than 100 nM; on PIK3CA (human) [1] it was 100 to 1000 nM.
Take `CC(=O)Nc1nc2ccc(-c3ccc4oc(N)nc4c3)cc2s1`: the IC50 against PIK3CA (human) [2] (t47d) was 100 to 1000 nM; against PIK3CD (Human) it was less than 100 nM; at PIK3CG (human) it was less than 100 nM; at PIK3CB (Human), 100 to 1000 nM; against PIK3CA (human) [1], less than 100 nM.
For the compound `Nc1nc2cc(-c3ccc4ncc(S(=O)(=O)N5CCOCC5)n4c3)ccc2o1`, the concentration for half-maximal inhibition (IC50) on PIK3CD (Human), against PIK3CG (human), against PIK3CB (Human) and on PIK3CA (human) [1] was greater than 10000 nM each time.
On PIK3CG (human), `Nc1nc2cc(-c3ccc4ncc(C(=O)N[C@H]5CC[C@H](O)CC5)n4c3)ccc2o1` came in with an IC50 of less than 100 nM.
Consider `Nc1nc2cc(-c3ccc4ncn(-c5ccncc5)c4c3)ccc2o1`, for which the IC50 was greater than 10000 nM on PIK3CA (human) [2] (pc3), 100 to 1000 nM against PIK3CG (human) and less than 100 nM against PIK3CA (human) [1].
With `CS(=O)(=O)N1CCC(n2cnc3ccc(-c4ccc5oc(N)nc5c4)cc3c2=O)CC1`, the figures for the IC50 against PIK3CD (Human), on PIK3CG (human) and against PIK3CA (human) [1] were greater than 10000 nM, greater than 10000 nM and 100 to 1000 nM, respectively.
`Nc1nc2cc(-c3ccc4ncc(-c5ccncc5)n4n3)ccc2o1`: the IC50 against PIK3CA (human) [2] (pc3) was 100 to 1000 nM; against PIK3CA (human) [2] (t47d), 100 to 1000 nM; against PIK3CG (human), less than 100 nM; at PIK3CB (Human) it was 100 to 1000 nM; against PIK3CA (human) [1] it was less than 100 nM.
With `Nc1nc2cc(-c3ccc4ncc(NCCN5CCOCC5)nc4c3)ccc2o1`, the IC50 is 100 to 1000 nM at PIK3CD (Human), 100 to 1000 nM against PIK3CG (human), 100 to 1000 nM against PIK3CB (Human) and less than 100 nM at PIK3CA (human) [1].
Take `Nc1nc2cc(-c3ccc4ncc(-c5ccncc5)n4c3)ccc2o1`: the IC50 against PIK3CA (human) [2] (t47d) is 100 to 1000 nM; on PIK3CD (Human) it was 100 to 1000 nM; on PIK3CG (human) it was less than 100 nM; at PIK3CA (human) [1], less than 100 nM.
Take `CN1CCN(n2cnc3ccc(-c4ccc5oc(N)nc5c4)cc3c2=O)CC1`: the IC50 at PIK3CD (Human) is greater than 10000 nM; against PIK3CG (human), greater than 10000 nM; against PIK3CB (Human), greater than 10000 nM; at PIK3CA (human) [1], 100 to 1000 nM.
Regarding `Nc1nc2cc(-c3ccc4ncc(N[C@H]5CC[C@H](O)CC5)nc4c3)ccc2o1`, the IC50 against PIK3CD (Human), at PIK3CG (human) and at PIK3CA (human) [1] was less than 100 nM throughout.
Regarding `CN1CCN(C(=O)c2cnn3ccc(-c4ccc5oc(N)nc5c4)cc23)CC1`, the IC50 against PIK3CD (Human) was greater than 10000 nM; against PIK3CA (human) [1] it was 100 to 1000 nM.
For the compound `Nc1nc2ccc(-c3ccc4nccc(-c5ccncc5)c4c3)cc2s1`, the IC50 on PIK3CD (Human) was 100 to 1000 nM; on PIK3CG (human), 100 to 1000 nM; against PIK3CB (Human), greater than 10000 nM; on PIK3CA (human) [1], less than 100 nM.
Regarding `C[C@H]1CN(c2cnc3ccc(-c4cccc5c(N)nsc45)cc3n2)CCN1`, the IC50 against PIK3CG (human) is less than 100 nM.
On to `CC1CN(C(=O)c2cnc3ccc(-c4ccc5oc(N)nc5c4)cn23)CCN1` (centres undefined), for which the IC50 at PIK3CD (Human) was greater than 10000 nM; against PIK3CG (human), greater than 10000 nM; against PIK3CB (Human), 100 to 1000 nM; at PIK3CA (human) [1], 100 to 1000 nM.
As for `Nc1nc2cc(-c3ccc4ncc(-c5cn[nH]c5)n4n3)ccc2o1`, the IC50 was 100 to 1000 nM on PIK3CD (Human), less than 100 nM on PIK3CG (human), less than 100 nM on PIK3CB (Human) and less than 100 nM at PIK3CA (human) [1].
For the compound `Nc1nc2cccc(-c3ccc4nccc(-c5ccncc5)c4c3)c2s1`, on PIK3CA (human) [1], the IC50 is less than 100 nM.
With `Nc1nc2cc(-c3ccc4ncc(C(=O)N5CCC(O)C5)n4c3)ccc2o1` (centres undefined), the IC50 at PIK3CA (human) [2] (t47d) and on PIK3CG (human) was 100 to 1000 nM each time.
For `CNc1nsc2cc(-c3ccc4ncc(C(=O)N5CCOCC5)n4c3)ccc12`, the IC50 against PIK3CD (Human), on PIK3CG (human), against PIK3CB (Human) and at PIK3CA (human) [1] was greater than 10000 nM each time.
For `NC(=O)[C@H]1CCCN1c1cnc2ccc(-c3ccc4oc(N)nc4c3)cc2n1`, the 50% inhibitory concentration (IC50) is 100 to 1000 nM at PIK3CA (human) [2] (t47d); greater than 10000 nM on PIK3CD (Human); less than 100 nM on PIK3CG (human); less than 100 nM against PIK3CB (Human); less than 100 nM against PIK3CA (human) [1].
As for `C[C@H]1CN(c2cnc3ccc(-c4ccc5oc(N)nc5c4)cc3c2)CCN1`, the IC50 against PIK3CD (Human) was greater than 10000 nM; against PIK3CB (Human) it was less than 100 nM; at PIK3CA (human) [1], less than 100 nM.
On to `NC1=NC2C=C(c3ccc4oc(N)nc4c3)C=CC2O1` (centres undefined), for which the figures for the IC50 against PIK3CG (human) and against PIK3CA (human) [1] were less than 100 nM and 100 to 1000 nM, respectively.
As to `NC1=NC2C=C(c3ccc4nc(N)oc4c3)C=CC2O1` (centres undefined), the 50% inhibitory concentration (IC50) against PIK3CD (Human) was 100 to 1000 nM; at PIK3CG (human), less than 100 nM; against PIK3CA (human) [1], 100 to 1000 nM.
On to `Nc1nc2cc(-c3ccc4nccc(-c5ccncc5)c4c3)ccc2o1`, for which the IC50 at PIK3CA (human) [2] (pc3) was 100 to 1000 nM; against PIK3CA (human) [2] (t47d), 100 to 1000 nM; against PIK3CD (Human) it was less than 100 nM; at PIK3CG (human), less than 100 nM; against PIK3CA (human) [1] it was less than 100 nM.
For `Nc1nc2ccc(-c3ccc4nccc(-c5ccncc5)c4c3)cc2o1`, the IC50 against PIK3CA (human) [2] (pc3), against PIK3CD (Human), against PIK3CG (human), at PIK3CB (Human) and against PIK3CA (human) [1] was less than 100 nM each time.
On PIK3CA (human) [2] (mda-mb-361), `CCOC(=O)N1CCN(c2cnc3ccc(-c4ccc5oc(N)nc5c4)nc3c2)CC1` returned an IC50 of 100 to 1000 nM.
On to `CN1CCN(S(=O)(=O)c2cnc3ccc(-c4ccc5oc(N)nc5c4)cn23)CC1`, for which the 50% inhibitory concentration (IC50) against PIK3CD (Human), against PIK3CG (human), against PIK3CB (Human) and at PIK3CA (human) [1] was greater than 10000 nM throughout.
`Cc1nccn1C1CN(c2cnc3ccc(-c4ccc5oc(N)nc5c4)cc3n2)C1` gave a concentration for half-maximal inhibition (IC50) on PIK3CA (human) [2] (t47d) of 100 to 1000 nM.
In the case of `COc1ncc(-c2ccc3ncc(C(=O)N4CCOCC4)n3c2)cc1NS(=O)(=O)c1cccnc1`, on PIK3CA (human) [2] (pc3), the IC50 was in the range of 100 to 1000 nM.
Take `CN(C)CC(=O)N1CCN(c2cnc3ccc(-c4ccc5oc(N)nc5c4)cc3n2)CC1`: the IC50 was 100 to 1000 nM on PIK3CA (human) [2] (t47d); 100 to 1000 nM at PIK3CD (Human); 100 to 1000 nM against PIK3CG (human); 100 to 1000 nM on PIK3CB (Human); less than 100 nM against PIK3CA (human) [1].
`Nc1noc2cc(-c3ccc4nccc(-c5ccncc5)c4c3)ccc12`: the IC50 on PIK3CA (human) [2] (t47d) fell in the range of 100 to 1000 nM.
Compound `Nc1nc2cc(-c3ccc4ncc(N5CCOCC5)nc4c3)ccc2s1` registered a half-maximal inhibitory concentration (IC50) against PIK3CA (human) [2] (t47d) of 100 to 1000 nM.
Regarding `Nc1nc2cc(-c3ccc4ncc(C(=O)N5CCC(N6CCC(F)(F)C6)C5)n4c3)ccc2o1` (centres undefined), the IC50 against PIK3CB (Human) was greater than 10000 nM; at PIK3CA (human) [1], 100 to 1000 nM.
Turning to `CCOC(=O)N1CCN(c2cnc3ccc(-c4ccc5oc(N)nc5c4)nc3n2)CC1`, the IC50 against PIK3CA (human) [2] (mda-mb-361) was 100 to 1000 nM.
As to `CC(=O)Nc1cn2cc(-c3ccc4oc(N)nc4c3)ccc2n1`, the IC50 at PIK3CA (human) [2] (pc3) was less than 100 nM; against PIK3CA (human) [2] (t47d) it was 100 to 1000 nM.
For `Nc1nc2cc(-c3ccc4ncc(N5CCOCC5)nc4n3)ccc2o1`, at PIK3CA (human) [2] (mda-mb-361), the IC50 was 100 to 1000 nM.
On PIK3CA (human) [2] (t47d), `CC(=O)N1CCC(N(C)c2ncnc3ccc(-c4ccc5oc(N)nc5c4)cc23)CC1` came in with an IC50 of 100 to 1000 nM.
The compound `CC(C)[C@@H](N)C(=O)N1CCN(c2cnc3ccc(-c4ccc5oc(N)nc5c4)cc3n2)CC1` displayed an IC50 on PIK3CA (human) [2] (t47d) of 100 to 1000 nM.
On to `COC1CN(C(=O)c2cnc3ccc(-c4ccc5oc(N)nc5c4)cn23)C1`, for which, at PIK3CA (human) [2] (pc3), the concentration for half-maximal inhibition (IC50) is 100 to 1000 nM.
Consider `Nc1nc2cc(-c3ccc4ncc(N5CCC(O)CC5)nc4n3)ccc2o1`, for which the IC50 on PIK3CA (human) [2] (mda-mb-361) lay in the range of 100 to 1000 nM.
Consider `COC(=O)N1CCC(N2N=CC3C(N4CCOCC4)=NC(c4ccc5oc(N)nc5c4)=NC32)CC1` (centres undefined), for which the results for the IC50 against PIK3CD (Human), on PIK3CG (human) and against PIK3CA (human) [1] were greater than 10000 nM, greater than 10000 nM and 100 to 1000 nM, respectively.

The values are drawn from the Kinase Knowledgebase extract (Sharma et al. 2016).
